Laboratory results as given in patent US20230085307A1, “PYRIDAZINONE COMPOUND AND HERBICIDE” (NISSAN CHEMICAL CORPORATION, priority 2019, published 2023).

Legend:
Japanese bulrush [1] = test: Test Example 1: herbicidal activity, application before weed generation under submerged conditions (Table 16, symbol B); assay type: in vivo, Japanese bulrush (Schoenoplectus juncoides)
Summary of the method: (§1)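 Submerged Wagner pots (alluvial soil, 4 cm water) sown with weed seeds and planted with 2.5-leaf rice seedlings; emulsifiable concentrate diluted in water applied to water surface on sowing day. Held in greenhouse at 25-30 °C; injury scored 0-5 by herbicidal rate after three weeks.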

oval-leafed pondweed [2] = test: Test Example 1: herbicidal activity, application before weed generation under submerged conditions (Table 16, symbol C); assay type: in vivo, oval-leafed pondweed (Monochoria vaginalis)
Summary of the method: as §1

late watergrass [3] = test: Test Example 2: herbicidal activity, application during weed generation under submerged conditions (Table 17, symbol A); assay type: in vivo, late watergrass (Echinochloa oryzicola); conditions: application during weed generation, submerged conditions
Summary of the method: (§2)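 In this pot test, flooded alluvial soil (water depth 4 cm) holds all three species sown as a mixture. Once seedlings have one to two leaves, the compound's emulsion, thinned with water to the intended dose, is poured on the water; grading follows after three weeks on the earlier criteria.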

oval-leafed pondweed [4] = test: Test Example 2: herbicidal activity, application during weed generation under submerged conditions (Table 17, symbol C); assay type: in vivo, oval-leafed pondweed (Monochoria vaginalis); conditions: application during weed generation, submerged conditions
Summary of the method: as §2

late watergrass [5] = test: Test Example 1: herbicidal activity, application before weed generation under submerged conditions (Table 16, symbol A); assay type: in vivo, late watergrass (Echinochloa oryzicola)
Summary of the method: as §1

Japanese bulrush [6] = test: Test Example 2: herbicidal activity, application during weed generation under submerged conditions (Table 17, symbol B); assay type: in vivo, Japanese bulrush (Schoenoplectus juncoides); conditions: application during weed generation, submerged conditions
Summary of the method: as §2

Chinese sprangletop = test: Test Example 3: herbicidal effect by foliage application, Wagner pot (Table 18, symbol D); assay type: in vivo, chinese sprangletop (Leptochloa chinensis)
Summary of the method: (§3)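 Plants were sown in alluvial soil held under 0.1–0.5 cm standing water and grown 14 days in a greenhouse at 25–30 °C. An emulsifiable formulation, water-diluted to the set dose, was then sprayed onto the foliage, and effects were scored three weeks later using previously defined criteria.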

barnyard grass [7] = test: Test Example 3: herbicidal effect by foliage application, Wagner pot (Table 18, symbol H); assay type: in vivo, barnyard grass (Echinochloa crus-galli)
Summary of the method: as §3

rice flat sedge = test: Test Example 3: herbicidal effect by foliage application, Wagner pot (Table 18, symbol E); assay type: in vivo, rice flat sedge (Cyperus iria)
Summary of the method: as §3

wild oat [8] = test: Test Example 4: herbicidal effect by soil treatment (Table 19, symbol I); assay type: in vivo, wild oat (Avena fatua); conditions: amount of applied herbicide 320 g/ha
Summary of the method: (§4)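 Pre-emergence style soil spray: seeds under ~1.5 cm sterilized diluvial soil received a uniform coat of emulsion diluted to the predetermined herbicide amount. Greenhouse 25–30° C; readout at week three on previously defined criteria.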

barnyard grass [9] = test: Test Example 5: herbicidal effect by foliage application, plastic box (Table 20, symbol H); assay type: in vivo, barnyard grass (Echinochloa crus-galli); conditions: amount of applied herbicide 320 g/ha; foliage application after 14-day growth; evaluated three weeks after application
Summary of the method: (§5)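 Plants were sown into sterilized diluvial soil under about 1.5 cm cover and kept in a greenhouse at 25° C. to 30° C. Fourteen days on, foliage received an even spray of the diluted emulsion. Herbicidal or crop effect was judged three weeks afterwards.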

lambsquarters [10] = test: Test Example 5: herbicidal effect by foliage application, plastic box (Table 20, symbol O); assay type: in vivo, lambsquarters (Chenopodium album); conditions: amount of applied herbicide 320 g/ha; foliage application after 14-day growth; evaluated three weeks after application
Summary of the method: as §5

green foxtail [11] = test: Test Example 4: herbicidal effect by soil treatment (Table 19, symbol G); assay type: in vivo, green foxtail (Setaria viridis); conditions: amount of applied herbicide 320 g/ha
Summary of the method: as §4

barnyard grass [12] = test: Test Example 4: herbicidal effect by soil treatment (Table 19, symbol H); assay type: in vivo, barnyard grass (Echinochloa crus-galli); conditions: amount of applied herbicide 320 g/ha
Summary of the method: as §4

blackgrass [13] = test: Test Example 5: herbicidal effect by foliage application, plastic box (Table 20, symbol J); assay type: in vivo, blackgrass (Alopecurus myosuroides); conditions: amount of applied herbicide 320 g/ha; foliage application after 14-day growth; evaluated three weeks after application
Summary of the method: as §5

chickweed [14] = test: Test Example 4: herbicidal effect by soil treatment (Table 19, symbol P); assay type: in vivo, common chickweed (Stellaria media); conditions: amount of applied herbicide 320 g/ha
Summary of the method: as §4

velvetleaf [15] = test: Test Example 5: herbicidal effect by foliage application, plastic box (Table 20, symbol M); assay type: in vivo, velvetleaf (Abutilon theophrasti); conditions: amount of applied herbicide 320 g/ha; foliage application after 14-day growth; evaluated three weeks after application
Summary of the method: as §5

persian speedwell [16] = test: Test Example 5: herbicidal effect by foliage application, plastic box (Table 20, symbol R); assay type: in vivo, Persian speedwell (Veronica persica); conditions: amount of applied herbicide 320 g/ha; foliage application after 14-day growth; evaluated three weeks after application
Summary of the method: as §5

velvetleaf [17] = test: Test Example 4: herbicidal effect by soil treatment (Table 19, symbol M); assay type: in vivo, velvetleaf (Abutilon theophrasti); conditions: amount of applied herbicide 320 g/ha
Summary of the method: as §4

Italian ryegrass [18] = test: Test Example 5: herbicidal effect by foliage application, plastic box (Table 20, symbol K); assay type: in vivo, Italian ryegrass (Lolium multiflorum); conditions: amount of applied herbicide 320 g/ha; foliage application after 14-day growth; evaluated three weeks after application
Summary of the method: as §5

windgrass [19] = test: Test Example 4: herbicidal effect by soil treatment (Table 19, symbol L); assay type: in vivo, windgrass (Apera spica-venti); conditions: amount of applied herbicide 320 g/ha
Summary of the method: as §4

redroot pigweed [20] = test: Test Example 4: herbicidal effect by soil treatment (Table 19, symbol N); assay type: in vivo, redroot pigweed (Amaranthus retroflexus); conditions: amount of applied herbicide 320 g/ha
Summary of the method: as §4

wild oat [21] = test: Test Example 5: herbicidal effect by foliage application, plastic box (Table 20, symbol I); assay type: in vivo, wild oat (Avena fatua); conditions: amount of applied herbicide 320 g/ha; foliage application after 14-day growth; evaluated three weeks after application
Summary of the method: as §5

southern crabgrass [22] = test: Test Example 4: herbicidal effect by soil treatment (Table 19, symbol F); assay type: in vivo, southern crabgrass (Digitaria ciliaris); conditions: amount of applied herbicide 320 g/ha
Summary of the method: as §4

southern crabgrass [23] = test: Test Example 5: herbicidal effect by foliage application, plastic box (Table 20, symbol F); assay type: in vivo, southern crabgrass (Digitaria ciliaris); conditions: amount of applied herbicide 320 g/ha; foliage application after 14-day growth; evaluated three weeks after application
Summary of the method: as §5

persian speedwell [24] = test: Test Example 4: herbicidal effect by soil treatment (Table 19, symbol R); assay type: in vivo, Persian speedwell (Veronica persica); conditions: amount of applied herbicide 320 g/ha
Summary of the method: as §4

Italian ryegrass [25] = test: Test Example 4: herbicidal effect by soil treatment (Table 19, symbol K); assay type: in vivo, Italian ryegrass (Lolium multiflorum); conditions: amount of applied herbicide 320 g/ha
Summary of the method: as §4

lambsquarters [26] = test: Test Example 4: herbicidal effect by soil treatment (Table 19, symbol O); assay type: in vivo, lambsquarters (Chenopodium album); conditions: amount of applied herbicide 320 g/ha
Summary of the method: as §4

green foxtail [27] = test: Test Example 5: herbicidal effect by foliage application, plastic box (Table 20, symbol G); assay type: in vivo, green foxtail (Setaria viridis); conditions: amount of applied herbicide 320 g/ha; foliage application after 14-day growth; evaluated three weeks after application
Summary of the method: as §5

chickweed [28] = test: Test Example 5: herbicidal effect by foliage application, plastic box (Table 20, symbol P); assay type: in vivo, common chickweed (Stellaria media); conditions: amount of applied herbicide 320 g/ha; foliage application after 14-day growth; evaluated three weeks after application
Summary of the method: as §5

blackgrass [29] = test: Test Example 4: herbicidal effect by soil treatment (Table 19, symbol J); assay type: in vivo, blackgrass (Alopecurus myosuroides); conditions: amount of applied herbicide 320 g/ha
Summary of the method: as §4

windgrass [30] = test: Test Example 5: herbicidal effect by foliage application, plastic box (Table 20, symbol L); assay type: in vivo, windgrass (Apera spica-venti); conditions: amount of applied herbicide 320 g/ha; foliage application after 14-day growth; evaluated three weeks after application
Summary of the method: as §5

redroot pigweed [31] = test: Test Example 5: herbicidal effect by foliage application, plastic box (Table 20, symbol N); assay type: in vivo, redroot pigweed (Amaranthus retroflexus); conditions: amount of applied herbicide 320 g/ha; foliage application after 14-day growth; evaluated three weeks after application
Summary of the method: as §5

[32] = amount of applied herbicide 320 g/ha

## Cc1nn(C)c(=O)c(-c2c(-c3ccccc3)sc3ccc(-c4ccccc4)cc23)c1O [2-166]
Japanese bulrush [1]; 80 g/ha applied herbicide
  Herbicidal effect on B: Japanese bulrush (grade 0-5): 0 (Herbicidal rate of 5% or less (almost no effect))
oval-leafed pondweed [2]; 80 g/ha applied herbicide
  Herbicidal effect on C: oval-leafed pondweed (grade 0-5): 0 (Herbicidal rate of 5% or less (almost no effect))
Late watergrass [3]; AAH 80 g/ha
  herbicidal effect rating, A: late watergrass: 0 (Herbicidal rate of 5% or less (almost no effect))
oval-leafed pondweed [4]; AAH 80 g/ha
  herbicidal effect rating, C: oval-leafed pondweed: 0 (Herbicidal rate of 5% or less (almost no effect))
Late watergrass [5]; 80 g/ha applied herbicide
  Herbicidal effect on A: late watergrass (grade 0-5): 2 (Herbicidal rate of 20% or more and less than 40%)
Japanese bulrush [6]; AAH 80 g/ha
  herbicidal effect rating, B: Japanese bulrush: 3 (Herbicidal rate of 40% or more and less than 70%)

## Cc1nn(C)c(=O)c(-c2c(-c3ccc([S+]([O-])CC(F)F)cc3)sc3ccc(F)cc23)c1O (stereo not drawn) [2-264]
Japanese bulrush [1]; 320 g/ha applied herbicide
  Herbicidal effect on B: Japanese bulrush (grade 0-5): 4 (Herbicidal rate of 70% or more and less than 90%)
oval-leafed pondweed [2]; 320 g/ha applied herbicide
  Herbicidal effect on C: oval-leafed pondweed (grade 0-5): 3 (Herbicidal rate of 40% or more and less than 70%)
Late watergrass [3]; AAH 320 g/ha
  herbicidal effect rating, A: late watergrass: 3 (Herbicidal rate of 40% or more and less than 70%)
Chinese sprangletop; [32]
  herbicidal effect on D: Chinese sprangletop: 3 (Herbicidal rate of 40% or more and less than 70%)
Barnyard grass [7]; [32]
  herbicidal effect on H: barnyard grass: 5 (Herbicidal rate of 90% or more (almost completely withered))
oval-leafed pondweed [4]; AAH 320 g/ha
  herbicidal effect rating, C: oval-leafed pondweed: 3 (Herbicidal rate of 40% or more and less than 70%)
Rice flat sedge; [32]
  herbicidal effect on E: rice flat sedge: 5 (Herbicidal rate of 90% or more (almost completely withered))
Late watergrass [5]; 320 g/ha applied herbicide
  Herbicidal effect on A: late watergrass (grade 0-5): 4 (Herbicidal rate of 70% or more and less than 90%)
Japanese bulrush [6]; AAH 320 g/ha
  herbicidal effect rating, B: Japanese bulrush: 3 (Herbicidal rate of 40% or more and less than 70%)

## Cc1nn(C)c(=O)c(-c2c(-c3ccc(F)cc3)sc3cc(Cl)c(Cl)cc23)c1O [5-039]
Wild oat [8]
  I: wild oat, herbicidal effect grade: 0 (Herbicidal rate of 5% or less (almost no effect))
Barnyard grass [9]
  Herbicidal effect by foliage application, H: barnyard grass: 4 (Herbicidal rate of 70% or more and less than 90%)
Lambsquarters [10]
  Herbicidal effect by foliage application, O: lambsquarters: 5 (Herbicidal rate of 90% or more (almost completely withered))
Green foxtail [11]
  G: green foxtail, herbicidal effect grade: 0 (Herbicidal rate of 5% or less (almost no effect))
Barnyard grass [12]
  H: barnyard grass, herbicidal effect grade: 0 (Herbicidal rate of 5% or less (almost no effect))
Late watergrass [3]; AAH 320 g/ha
  herbicidal effect rating, A: late watergrass: 3 (Herbicidal rate of 40% or more and less than 70%)
Blackgrass [13]
  Herbicidal effect by foliage application, J: blackgrass: 4 (Herbicidal rate of 70% or more and less than 90%)
Chickweed [14]
  P: chickweed, herbicidal effect grade: 0 (Herbicidal rate of 5% or less (almost no effect))
Velvetleaf [15]
  Herbicidal effect by foliage application, M: velvetleaf: 3 (Herbicidal rate of 40% or more and less than 70%)
Persian speedwell [16]
  Herbicidal effect by foliage application, R: persian speedwell: 4 (Herbicidal rate of 70% or more and less than 90%)
Velvetleaf [17]
  M: velvetleaf, herbicidal effect grade: 0 (Herbicidal rate of 5% or less (almost no effect))
Chinese sprangletop; 320 g/ha
  herbicidal effect on Chinese sprangletop (D): 3 (Herbicidal rate of 40% or more and less than 70%)
Italian ryegrass [18]
  Herbicidal effect by foliage application, K: Italian ryegrass: 4 (Herbicidal rate of 70% or more and less than 90%)
Barnyard grass [7]; 320 g/ha
  herbicidal effect on barnyard grass (H): 4 (Herbicidal rate of 70% or more and less than 90%)
Windgrass [19]
  L: windgrass, herbicidal effect grade: 0 (Herbicidal rate of 5% or less (almost no effect))
Redroot pigweed [20]
  N: redroot pigweed, herbicidal effect grade: 3 (Herbicidal rate of 40% or more and less than 70%)
Wild oat [21]
  Herbicidal effect by foliage application, I: wild oat: 5 (Herbicidal rate of 90% or more (almost completely withered))
Southern crabgrass [22]
  F: southern crabgrass, herbicidal effect grade: 0 (Herbicidal rate of 5% or less (almost no effect))
oval-leafed pondweed [4]; AAH 320 g/ha
  herbicidal effect rating, C: oval-leafed pondweed: 0 (Herbicidal rate of 5% or less (almost no effect))
Southern crabgrass [23]
  Herbicidal effect by foliage application, F: southern crabgrass: 4 (Herbicidal rate of 70% or more and less than 90%)
Persian speedwell [24]
  R: persian speedwell, herbicidal effect grade: 0 (Herbicidal rate of 5% or less (almost no effect))
Rice flat sedge; 320 g/ha
  herbicidal effect on rice flat sedge (E): 5 (Herbicidal rate of 90% or more (almost completely withered))
Italian ryegrass [25]
  K: Italian ryegrass, herbicidal effect grade: 0 (Herbicidal rate of 5% or less (almost no effect))
Lambsquarters [26]
  O: lambsquarters, herbicidal effect grade: 1 (Herbicidal rate of 5% or more and less than 20%)
Green foxtail [27]
  Herbicidal effect by foliage application, G: green foxtail: 5 (Herbicidal rate of 90% or more (almost completely withered))
Chickweed [28]
  Herbicidal effect by foliage application, P: chickweed: 5 (Herbicidal rate of 90% or more (almost completely withered))
Blackgrass [29]
  J: blackgrass, herbicidal effect grade: 0 (Herbicidal rate of 5% or less (almost no effect))
Windgrass [30]
  Herbicidal effect by foliage application, L: windgrass: 5 (Herbicidal rate of 90% or more (almost completely withered))
Redroot pigweed [31]
  Herbicidal effect by foliage application, N: redroot pigweed: 5 (Herbicidal rate of 90% or more (almost completely withered))
Japanese bulrush [6]; AAH 320 g/ha
  herbicidal effect rating, B: Japanese bulrush: 0 (Herbicidal rate of 5% or less (almost no effect))
